Assay [1] addresses T1, FXR L287T (Homo sapiens, UniProt Q96RI1, L301T).
T1 construct: the expression plasmid expressing full-length FXR (wt) or with mutations at the corresponding sites; expressed in transfected cells; host or cells: COS-7
T1 sequence (Q96RI1 1-472 isoform Q96RI1-2 L287T): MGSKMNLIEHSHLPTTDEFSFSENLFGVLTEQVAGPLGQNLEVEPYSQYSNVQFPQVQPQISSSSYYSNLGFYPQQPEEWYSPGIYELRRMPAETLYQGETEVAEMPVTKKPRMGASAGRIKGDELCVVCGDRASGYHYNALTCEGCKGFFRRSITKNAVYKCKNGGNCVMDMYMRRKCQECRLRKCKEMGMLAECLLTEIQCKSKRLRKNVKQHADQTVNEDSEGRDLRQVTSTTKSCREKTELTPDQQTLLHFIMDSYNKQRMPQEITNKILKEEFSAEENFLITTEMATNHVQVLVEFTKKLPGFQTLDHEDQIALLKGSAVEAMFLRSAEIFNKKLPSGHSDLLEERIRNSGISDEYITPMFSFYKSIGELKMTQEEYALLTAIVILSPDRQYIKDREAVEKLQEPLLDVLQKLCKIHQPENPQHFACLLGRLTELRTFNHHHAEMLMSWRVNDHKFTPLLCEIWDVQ
Put plainly: Reporter gene analysis with FXR point mutant L287T in COS-7 cells. The format is cell-based. As to conditions: COS-7, EcRE reporter, vs wild-type FXR, FIG. 5. The method, then:
(§1) (2) The expression vector of FXR with point mutations at key binding sites is obtained. Quick-Change site-directed mutagenesis kit (Stratagene) is used for mutation, and the mutation reaction system is as follows: wild-type plasmid pCMX-FXR (50 ng) of 0.5 μl, mutation primer (100 μM) of 0.2 μl, pfu DNA polymerase (Invitrogen) (2 U) of 1 μl, 10 mM dNTPs of 1 μl, 10× PCR buffer of 5 μl, and ddH2O of 43 μl. PCR procedures are performed as follows: 94° C. for 2 min; 94° C. for 30 s, 55° C. for 1 min, 72° C. for 7 min, 15 cycles. 20 μl PCR product is digested with Dpn I […], followed by taking and transforming 2 μl digestion product into E. coli Trans 109 competent cells, ice bath for 30 min, and heat shock at 42° C. for 30 s. 250 μl of LB liquid medium without antibiotics is added, and preshaken at 225 rpm at 37° C. for 40 min, followed by taking 150 μl of products, spreading same on LB solid medium plates with ampicillin at 100 μg/ml and culturing them at 37° C. overnight. On the next day, the single colony is picked out and placed in 2 ml LB liquid medium containing ampicillin at 100 μg/ml, and cultured at 37° C. overnight. Plasmid extraction is performed on the shaken bacterial solution using Qiagen MiniPrep Plasmid Minipreparation Kit. The plasmid is identified by sequencing.
A general note: In a reporter assay the amount or activity of a reporter protein is the signal.

In assay [2] the target is T2, FXR A291W (Homo sapiens, UniProt Q96RI1, A305W).
T2 construct: the expression plasmid expressing full-length FXR (wt) or with mutations at the corresponding sites; expressed in transfected cells; host or cells: COS-7
T2 sequence (Q96RI1 1-472 isoform Q96RI1-2 A291W): T1 sequence (Q96RI1 1-472 isoform Q96RI1-2 L287T) with T287L, A291W
Put plainly: Reporter gene analysis with FXR point mutant A291W in COS-7 cells. Particulars: COS-7, EcRE reporter, FIG. 5. The format is cell-based. The method, then: as §1

Where a chain is given by its changes, count along the chain named.

Consider `CC[C@H](C)[C@H]1O[C@]2(CC[C@@H]1C)C[C@@H]1C[C@@H](C/C=C(\C)C(O[C@H]3C[C@H](OC)C(O[C@H]4C[C@H](OC)[C@@H](O)[C@H](C)O4)[C@H](C)O3)[C@@H](C)/C=C/C=C3\CO[C@@H]4[C@H](O)C(C)=CC(C(=O)O1)[C@]34O)O2` (some centres unmarked) [ivermectin], for which the “transcriptional activity of FXR mutant L287T” value in assay [1] is recorded as “significantly increasing”. The “transcriptional activity of FXR mutant A291W” value in assay [2] is given as “incapable of activating the transcriptional activity of FXR”.
